Data reported in patent US20250034139A1, “AMINE COMPOUNDS HAVING ANTI-INFLAMMATORY, ANTIFUNGAL, ANTIPARASITIC, AND ANTICANCER ACTIVITY” (PHARMA CINQ, LLC, priority 2013, published 2025).
≈ marks a conversion by molar mass, not a printed value.

Legend:
[1] = system: Trichophyton rubrum strains; test: Example N: MIC and MFC (CLSI) against Trichophyton rubrum; type: cell-based; details: for MIC: read-out: MIC 100%, Range, incubated for 96 hrs, three clinical strains; for MFC: three clinical strains
Method: The objective of this study was to determine the antifungal activity of eight experimental compounds against a representative panel of fungal isolates, including Candida albicans, C. glabrata, Cryptococcus neoformans, Trichophyton rubrum, Aspergillus fumigatus, and Rhizopus spp. Antifungal activity was measured by minimum inhibitory concentration (MIC) and minimum fungicidal concentration (MFC).
Three recent clinical strains of each species, taken from the culture collection at the Center for Medical Mycology, Case Western University, were tested.
Compounds in powder form were dissolved in DMSO. Serial dilutions of each compound were then prepared in RPMI-1640 in a range of […].
MIC testing was performed according to the CLSI M27-A3 and M38-A2 standards for the susceptibility testing of yeasts and filamentous fungi, respectively (1, 2). Test isolates were subcultured from frozen slants onto potato dextrose agar plates (Trichophyton rubrum was subcultured onto oatmeal plates for conidia production) and checked for purity. Inocula were then prepared in RPMI-1640 (YNB for Cryptococcus) to a concentration of 0.5-2.5×10^3 colony-forming units (CFU)/ml or 0.4-5×10^4 conidia/ml for yeast and filamentous fungi, respectively.
MFC determinations were performed according to the modifications previously described by Canton et al. and Ghannoum and Isham. (3, 4) Specifically, the total contents of each clear well from the MIC assay were subcultured onto potato dextrose agar. To avoid antifungal carryover, the aliquots were allowed to soak into the agar and then were streaked for isolation once dry, thus removing the cells from the drug source.

[2] = system: Trichophyton rubrum; test: Example J: Trichophyton rubrum growth inhibition, scoring by eye; type: cell-based; details: Trichophyton rubrum, 144 h; 6 days at 30° C., tested 6 to 40 μM; read-out: MIC, μM (maximum inhibition concentration, scoring by eye)
How it was run: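 Filtered T. rubrum suspension from PDA plates (grown 4 days, 30 °C) treated with diluted compounds in triplicate, incubated 6 days at 30 °C. Plates imaged; MIC scored by eye.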

[3] = system: THP-1 cells; test: Example C: compound screen, viable THP-1 cell count after 5 hours +/- LPS; type: cell-based, Human; details: for ability to inactivate pro-inflammatory THP-1 cells, in words (relative to benchmark AC): LPS-treated THP-1 cells
Text: Background: THP-1 is a human acute myeloid leukemia (AML) cell line that can be induced into a macrophage-like cell with vitamin-D3 (vit-D3). In the macrophage, LPS (lipopolysaccharide; endotoxin) stimulation of toll-like receptor 4 (TLR-4) leads to NF-κB activation and secretion of inflammatory cytokines but also the priming of programmed death pathways through RIP and Caspase 8. The balance of this complex regulatory network is dependent on highly specific kinases, enzymes that require ATP. Disruption of either cytosolic pH or ATP availability/energy level uncouples this control network and the can macrophage shift away from production of inflammatory cytokines towards a programmed death event, which has the net effect of limiting inflammatory damage.

[4] = system: S. cerevisiae; test: Example I: Saccharomyces cerevisiae growth inhibition (OD 600 nm); type: cell-based; details: Saccharomyces cerevisiae, 18 hour incubation at 30° C., OD 600 nm, XLfit; for IC50: read-out: IC50, uM (50% inhibition of fungal growth); for MIC: read-out: MIC, uM (99% of inhibition of fungal growth)
[5] = system: 4T1 murine breast cancer cells; test: Example S: in vitro anticancer screen, 4T1 cells, Wst1; type: cell-based, mouse; details: Mus musculus, 4T1, 18 h, 18 hr, Wst1; for viability at 1 µM: read-out: 4T1 1 μM, percent of cancer cell survival relative to vehicle treated cells; for viability at 5 µM: read-out: 4T1 5 μM, percent of cancer cell survival relative to vehicle treated cells
How it was run: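 4T1 cells seeded at 1×10^4/well were exposed to compound at 1 μM or 5 μM for 18 hr after plating. Wst1 tetrazolium dye was then added for about 2 hr and absorbance read at 450 nm (reference 630 nm). Values are percent survival relative to vehicle-treated cells.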

[6] = system: PC-3 prostate cancer cells; test: Example T: sensitisation of PC-3 cells to doxorubicin, oxaliplatin, paclitaxel or vincristine, Wst1; type: cell-based, human; details: PC-3 cells, 72 hours; for viability at 0.4 µM: compound 0.4 μM alone; for Doxorubicin 3.5 μM: percent cell survival / Oxaliplatin 100 μM: percent cell survival / Paclitaxel 50 μM: percent cell survival / Vincristine 100 nM: percent cell survival: chemotherapy agent alone normalized to 100%
[7] = Homo sapiens, Wst1, vehicle = 100, read-out: No Chemo: percent cell survival
[8] = compound 0.4 μM + doxorubicin 3.5 μM
[9] = compound 0.4 μM + oxaliplatin 100 μM
[10] = compound 0.4 μM + paclitaxel 50 μM
[11] = compound 0.4 μM + vincristine 100 nM

Structure (SMILES)	MIC [1] [µg/mL]	MFC [1] [µg/mL]	MIC [2] [µM]	Reduction in viable THP-1 cell count (percent change) from 0 hours, Mean ± SE ([3]; Compound (0.1 μM), No LPS) [%]	Reduction in viable THP-1 cell count (percent change) from 0 hours, Mean ± SE ([3]; Compound (0.1 μM), Plus LPS) [%]	Reduction in viable THP-1 cell count (percent change) from 0 hours, Mean ± SE ([3]; Compound (1.0 μM), No LPS) [%]	Reduction in viable THP-1 cell count (percent change) from 0 hours, Mean ± SE ([3]; Compound (1.0 μM), Plus LPS) [%]	ability to inactivate pro-inflammatory THP-1 cells, in words (relative to benchmark AC) [3]	IC50 [4] [µM]	MIC [4] [µM]	viability at 1 µM [5] [%]	viability at 5 µM [5] [%]	viability at 0.4 µM [6, 7] [%]	Doxorubicin 3.5 μM: percent cell survival [6, 8] [%]	Oxaliplatin 100 μM: percent cell survival [6, 9] [%]	Paclitaxel 50 μM: percent cell survival [6, 10] [%]	Vincristine 100 nM: percent cell survival [6, 11] [%]	further results
COc1ccc(OCCCCCCCCNc2ncnc3ccccc23)cc1 [AE, N-[8-(4-Methoxyphenoxy)octyl]quinazolin-4-amine]	4 to 16 (≈ 10.5 to 42.2 µM)	4 to 16 (≈ 10.5 to 42.2 µM)	6 (≈ 2.28 µg/mL)															
CCCCOCCCCCCCCCCNc1ccnc2ccccc12 [AM, N-(10-Butoxydecyl)quinolin-4-amine]	0.5 to 4 (≈ 1.4 to 11.2 µM)	1 to 4 (≈ 2.8 to 11.2 µM)	12 (≈ 4.28 µg/mL)	−5.57 ± 2.67	−19.80 ± 1.96	−8.47 ± 3.31	−44.05 ± 1.38	higher activity than the active benchmark compound AC	13.4	18.9 (≈ 6.73 µg/mL)	24.3	29.5	58.5	24.7	25.4	54.8	26	
CCCCCCOCCCCCCCCNc1ccnc2cc(Cl)ccc12 [AW, 7-Chloro-N-[8-(hexyloxy)octyl]quinolin-4-amine]	1 to 16 (≈ 2.56 to 40.9 µM)	8 to 16 (≈ 20.5 to 40.9 µM)	6 (≈ 2.35 µg/mL)						9.73	10.2 (≈ 4 µg/mL)	44.2	18	38.2	59.5	70	51.3	33.6	
CCCCCCOc1cccc(CNc2ccnc3ccccc23)c1 [Compound AC, N-[3-(Hexyloxy)benzyl]quinolin-4-amine]	0.5 to 4 (≈ 1.49 to 12 µM)	0.5 to 4 (≈ 1.49 to 12 µM)	18 (≈ 6.02 µg/mL)	−7.48 ± 5.82	−15.14 ± 2.06	−9.60 ± 1.96	−44.25 ± 2.53		27.7	47.7 (≈ 15.9 µg/mL)	23.3	19.3	61.5	32.8	30	14	34.1	
CCCCCCCCCCNc1ccnc2ccccc12 [Compound AG, N-(Decyl)quinolin-4-amine]	0.25 to 2 (≈ 0.879 to 7.03 µM)	0.5 to 2 (≈ 1.76 to 7.03 µM)	18 (≈ 5.12 µg/mL)	−6.24 ± 0.69	−21.28 ± 1.52	−4.02 ± 2.83	−38.58 ± 0.73	higher activity than the active benchmark compound AC	19.4	24.4 (≈ 6.93 µg/mL)								viability at 2.5 µM ([6]; Homo sapiens, compound 2.5 μM alone, Wst1, vehicle = 100, read-out: No Chemo: percent cell survival): 18.4%; Doxorubicin 3.5 μM: percent cell survival ([6]; compound 2.5 μM + doxorubicin 3.5 μM): 21.1%; Oxaliplatin 100 μM: percent cell survival ([6]; compound 2.5 μM + oxaliplatin 100 μM): 27.1%; Paclitaxel 50 μM: percent cell survival ([6]; compound 2.5 μM + paclitaxel 50 μM): 21.8%; Vincristine 100 nM: percent cell survival ([6]; compound 2.5 μM + vincristine 100 nM): 17.1%
CCCCCCCCCCNc1ncnc2ccccc12 [Compound AH, N-(Decyl)quinazolin-4-amine]	0.25 to 4 (≈ 0.876 to 14 µM)	0.25 to 16 (≈ 0.876 to 56.1 µM)	6 (≈ 1.71 µg/mL)	−9.66 ± 1.34	−26.55 ± 0.95	−7.87 ± 0.98	−35.51 ± 3.90	higher activity than the active benchmark compound AC										
CCCCCCOCCCCCCCCCCNc1ccnc2ccccc12 [Compound AL, N-[10-(Hexyloxy)decyl]quinolin-4-amine]	1 to 4 (≈ 2.6 to 10.4 µM)	2 to 4 (≈ 5.2 to 10.4 µM)	12 (≈ 4.62 µg/mL)						9.67	10.5 (≈ 4.03 µg/mL)	16.6	18.3	61.6	21.9	21.9	51.8	28.1	
CCCCCCOCCCCCCCCNc1ccnc2c(Cl)cccc12 [Compound AX, 8-Chloro-N-[8-(hexyloxy)octyl]quinolin-4-amine]	0.25 to 8 (≈ 0.639 to 20.5 µM)	2 to 8 (≈ 5.12 to 20.5 µM)	6 (≈ 2.35 µg/mL)						19.6	19.9 (≈ 7.79 µg/mL)	24.3	18	31.2	57.9	49.5	26.7	31.5	
